Values quoted from earlier work, collected in patent publication US20260306413A1, “COLONIC PURGATIVE TABLET AND COLONIC PURGATIVE COMPRISING SAME” (PHARMBIO KOREA CO., LTD., priority 2023, published 2026).

Row | complications (oral) | Molecule | colon cleansing effect (compared to PEG) | side effects (frequency vs PEG)
1 | – | Phosphate | colon cleansing effect in smaller doses compared to PEG | side effects such as abdominal inflation, pain, and dizziness at a similar frequency to PEG
2 | acute phosphate nephropathy | O=P(O)(O)O [oral sodium phosphate, sodium phosphate] | – | –
